Assay results reported in BindingDB's records for doi:10.1111/j.1747-0285.2012.01416.x (University of California San Diego, 2012).

Target: Cruzipain (Trypanosoma cruzi, UniProt P25779)
Experiment: Enzymatic Assay
Description: Enzymatic inhibition using cruzain.

Chain of Cruzipain (P25779 whole entry): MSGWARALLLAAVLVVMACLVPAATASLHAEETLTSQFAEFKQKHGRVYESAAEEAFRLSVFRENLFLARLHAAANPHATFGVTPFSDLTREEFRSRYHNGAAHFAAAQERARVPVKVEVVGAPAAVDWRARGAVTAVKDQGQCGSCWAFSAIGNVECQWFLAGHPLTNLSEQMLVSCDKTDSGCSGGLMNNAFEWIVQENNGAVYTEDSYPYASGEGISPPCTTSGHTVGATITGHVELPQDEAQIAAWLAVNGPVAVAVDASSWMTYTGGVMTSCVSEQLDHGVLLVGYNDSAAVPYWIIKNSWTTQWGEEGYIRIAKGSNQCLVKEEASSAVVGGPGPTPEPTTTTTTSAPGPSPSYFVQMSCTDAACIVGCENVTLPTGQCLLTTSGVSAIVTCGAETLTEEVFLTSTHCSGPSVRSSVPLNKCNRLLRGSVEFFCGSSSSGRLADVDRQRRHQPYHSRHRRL

| SMILES | IC50 |
| --- | --- |
| CO[C@H]1[C@@H](OC(=O)c2ccc(C)[nH]2)[C@@H](O)C(Oc2ccc3c(O)c(NC(=O)c4ccc(O)c(CC=C(C)C)c4)c(=O)oc3c2Cl)OC1(C)C (some centres not stated) [NSC227186] | 16 µM |
| Cn1ccc(=Nc2ccc(NC(=O)c3ccc(N=c4ccn(C)c5ccc([N+](=O)[O-])cc45)cc3)cc2)cc1 [4-[(1-methyl-6-nitro-quinolin-4-ylidene)amino]-N-[4-[(1-methylpyridin-4-ylidene)amino]phenyl]benzamide] | 63 µM |
